Measured values: patent EP0063946A1, “Diagnosis of kidney function” (priority 1981, dated 1982)

What was measured:
[1] = background statement; cited from earlier work
[2] = Animal biodistribution and clearance studies in rats; type: in vivo
Description: Samples for animal biodistribution studies were administered 1-2 hours post preparation.
Comparative data for Hippuran, Tc-99m TDG and Tc-99m DTPA in rats is set out in Table II.

With O=C(O)CNC(=O)c1ccccc1[131I] [Hippuran, sodium iodohippurate] as the compound, how does the “removed from the blood in a single pass through the kidney” value [1] read?
Its value is “About 80%”.

What about the Clearance half time [2] of the same compound?
Its Clearance half time is 10.4 min.

And the “% in urine at 30 min p.i.” value ([2]; 30 min p.i.)?
Its value is 82.6%.

What about the “2 hour dissection (% injected dose) Bladder” value ([2]; 2 hour dissection) of the same compound?
The value was 93.0 % injected dose.

What about the “2 hour dissection (% injected dose) Intestine” value ([2]; 2 hour dissection) of the same compound?
The value was 2.5 % injected dose.

And the “2 hour dissection (% injected dose) Kidney” value ([2]; 2 hour dissection)?
Its value is 0.2 % injected dose.

What about the “2 hour dissection (% injected dose) Liver” value ([2]; 2 hour dissection) of the same compound?
Its value is 0.2 % injected dose.
